The text below walks through data of patent publication US7259140B2, “Heparin-binding peptides and uses thereof” (Thomas Jefferson University, priority 2003, dated 2007).

Entries after “also recorded” stand apart in the source; their conditions may differ. Ends that are not written are not given here.

Data set [1] in a line: Affinity coelectrophoresis (ACE) of peptide binding to radiolabeled low Mr heparin. Also on record: species or system pig. From the text: Preparation of Radiolabeled Heparin. Whole heparin from pig intestinal mucosa (Sigma) was tyramine end-labeled and radiolabeled with Na^125I (Amersham, Pharmacia Biotech, Inc., Piscataway, N.J.) to an average specific activity≅1.0×10^7 CPM/μg as described (San Antonio, J. D., et al., Biochemistry, 32:4746-4755, 1993). Radiolabeled heparin was fractionated on Sephadex G-100 (Bio-Rad Laboratories, Hercules, Calif.) and the final≅12% of material to elute was retained as the low Mr material of ≦6,000 (Jordan, R., D. Beeler, and R. Rosenberg, J. Biol. Chem., 254:2902-2913, 1979; Laurent, T. C., et al., Biochem. J., 175:691-701, 1978).
Analysis of Peptide-Heparin Interactions by Affinity Coelectrophoresis (ACE). ACE was used to study interactions between peptides and low molecular weight (low Mr) heparin (WO00/45831). In ACE, trace concentrations of radiolabeled heparin are electrophoresed through agarose lanes containing peptides at various concentrations. These analyses are used to determine the dissociation constants (Kd's). The electrophoretic patterns of radiolabeled heparin are then visualized using a phosphorimager, and the dissociation constant (Kd) corresponds to the protein concentration at which the heparin is half shifted from being fully mobile at very low protein concentrations to maximally retarded at saturating protein concentrations. The lower the Kd value, the higher the affinity.
Binding of radiolabeled heparin to peptides was studied by ACE as detailed elsewhere (San Antonio, J. D., et al., Biochemistry, 32:4746-4755, 1993). […] Briefly, peptides were dissolved in 1×ACE running buffer, 50 mM sodium 3-(N-morpholino)-2-hydroxypropanesulfonate (MOPSO, Sigma)/125 mM sodium acetate, pH 7.0, and serially diluted in running buffer at 2× concentrations. Peptides were then mixed 1:1 with 2% agarose/1% CHAPS, 3-[(3-cholamidopropyl)dimethylammonio]-1-propanesulfonate, (Boehringer Mannheim, Indianapolis, Ind.), and loaded into wells of a 1% agarose gel. Radiolabeled heparin was then loaded in a slot on the anode side of the gel, and electrophoresed through the peptide-containing wells, towards the cathode. Gels were dried and PG mobility was measured with a Phosphorimager (Molecular Dynamics, Sunnyvale, Calif.) by scanning each protein lane and determining the relative radioactivity content per 88-μm pixel through the length of the lane. Retardation coefficient (R) measurements, binding isotherm curve fittings, and apparent Kd value determinations were calculated as detailed previously (Lee, M. K., and A. D. Lander, Proc. Natl. Acad. Sci. USA, 88:2768-2772, 1991; San Antonio, J. D., et al, Biochemistry, 32:4746-4755, 1993).
Retardation coefficients (R) for the migration of low Mr 1^25I-tyramine-heparin through peptides were determined from ACE gel electrophoretograms, and are plotted against peptide concentration. Smooth curves represent non-linear least-squares fits to the equation R=R∞/{1+(Kd/[peptide])^n}.

Data set [2] is described as follows: Hemodynamic effects in rats without prior Lovenox. The following applies: no Lovenox.
Procedure: Rats were sedated, and catheters were inserted into the femoral vein and femoral artery. The femoral artery catheter was hooked up to the computerized monitoring system, and injections were made through the femoral vein. Peptides were injected into rats without prior injection of Lovenox. Two or more rats (300-350 grams) were treated with 2 mg protamine or peptide.
At the times indicated in the figures, the following actions were taken: administration of saline to insure that the animal and intubations were stable; administration of test peptide or protamine alone; then administration of protamine.
The next data set concerns platelets. The data set is described as follows: Platelet aggregation with aggregation-inducing agents. It counts as cell-based, human. The note with it: 12 μg/ml; Lovenox 0.5 U/ml; collagen, ADP, ristocetin, epinephrine, SFFLRN, A23187. On the procedure:
Plasma from six volunteers was tested with various aggregation inducing agents, at several concentrations of each agent, and with six different peptides of the invention. The effect of heparin-binding peptides of the invention on platelet aggregation was determined using standard procedures as previously described. The six peptides which were synthesized and tested were: (ARKKAAKA)4 (SEQ ID NO:31), ARKKAAKA(A16)ARKKAAKA (SEQ ID NO:30), (ARKKAAKA)3ARKKCAKA (SEQ ID NO:33), (ARKKAAKA)3VLVLVLVL (SEQ ID NO:5), C(ARKKAAKA)4C (SEQ ID NO:34), and (AKKARA)6 (SEQ ID NO:32).
The aggregation-inducing agents tested were: collagen, adenosine diphosphate (ADP), ristocetin, epinephrine, the thrombin receptor peptide SFFLRN, and calcium ionophore A23187. Platelets were subjected to protamine, or to SEQ ID NOS:31, 33, 30, 5, 34, or 32 at 12 μg/ml, and Lovenox® at 0.5 U/ml. Platelet aggregation in response to agonists was monitored and percent aggregation was determined over a five minute interval.
The agonist was added after equilibration of the platelets for one minute.

The test system of data set [3] is anti-Factor Xa Activity of the Low Molecular Weight Heparin Lovenox ®. Briefly: Anti-Factor Xa assay (Stachrom Heparin kit): neutralization of Lovenox in citrate or plasma in vitro. The note with it: in both citrate and plasma. It counts as biochemical, human. On the procedure: (§1) The ability of peptides such as (ARKKAAKA)3VLVLVLVL (SEQ ID NO:5) to neutralize the anti-Factor Xa activity of UFH and LMWH in vitro was tested using the Stachrom Heparin kit (Diagnostica Stago), a standard hematology laboratory assay used to measure the anti-Factor Xa activity of heparin. The assay was performed using the low molecular weight heparin enoxaparin sodium (Lovenox®, Aventis Pharmaceuticals, Inc.), unfractionated heparin (UFH), or the non-heparin glycosaminoglycan danaparoid sodium (Orgaran®, Organon Inc., West Orange, N.J.) in 0.32% citrate or in plasma anticoagulated with 0.32% citrate. Enoxaparin is commonly used clinically as a low molecular weight heparin (LMWH). Danaparoid is commonly used clinically as a non-heparin glycosaminoglycan anticoagulant. Currently, the only FDA approved drug to target UFH is protamine, which is not effective in vivo against LMWH or a non-heparin glycosaminoglycan such as danaparoid. Buffer and ATIII are added to form the heparin/ATIII complex, peptide is added, then Factor Xa, reporter dye substrate for Factor Xa activity, and stop solution, and the dye concentration is read at 405 nm. The absorbance of the dye increases with increasing Factor Xa activity, and thus is inversely proportional to the heparin (anti-Factor Xa activity) concentration. Peptides were tested in plasma obtained from three volunteers (A, B, and C). Platelet function inhibitors PG12 and theophylline were added to the blood immediately upon collection.
Results. […] (ARKKAAKA)3VLVLVLVL (SEQ ID NO:5) and VLVL(ARKKAAKA)3ARKKCAKA (SEQ ID NO:38) were able to neutralize about 0.4 U/ml anti-Factor Xa activity of LMWH at a concentration of 12 μg/ml, which would be an effective dose for patients. (AKKARA)6 (SEQ ID […]), (ARKKAAKA)4 (SEQ ID NO:31) and (ARKKAAKA)3ARKKCAKA […] 0.3-0.35 U/ml. In contrast, 12 μg protamine only neutralized about 0.25 U/ml of LMWH under these conditions.

Data set [4] relates to anti-Factor Xa Activity of Unfractionated Heparin. The data set is described as follows: Anti-Factor Xa assay: neutralization of unfractionated heparin in citrate or plasma in vitro. It counts as biochemical, human. The following applies: in both citrate and plasma. How it is done:
as §1, with “collection. […]” for “collection.”

Data set [5] is described as follows: Hemodynamic effects in rats after administration of the LMWH Lovenox. The note with it: in the presence of LMWH Lovenox.
Procedure: Next, experiments were performed in which the animals were treated with the peptides after the administration of the LMWH Lovenox®, as would happen in the clinical situation, because binding of peptides to LMWH would be expected to reduce the effects of the peptides on hemodynamic function.
Data set [6] deals with Lovenox ® Activity in Blood from Patients Treated with Lovenox ®. Briefly: Neutralizing Lovenox activity in blood from patients treated with Lovenox (anti-Factor Xa assay). It counts as biochemical, human. The note with it: Peptide 12 μg/ml. On the procedure: Blood was obtained from volunteers who were being treated with Lovenox® for their medical conditions after obtaining signatures on informed consent forms as approved by the Institutional Review Board. The assays to test neutralization of Lovendx® were performed as described for Table 2. A dose response from 1-60 μg/ml was evaluated as in Table 2.
The dose response pattern for the effective peptides was similar to the dose response in control plasma to which Lovenox® had been added. Each data point represents the mean and standard deviation of triplicate analyses on the same sample of blood from each patient.

For the substance “(ARKKAAKA)4VLVLVLVL (ARKKAAKAARKKAAKAARKKAAKAARKKAAKAVLVLVLVL; Fragment) [SEQ ID NO:1]”, the “affinity for low molecular weight heparin” value in data set [1] was “high affinity”.
As for “AKKARAAKKARAAKKARAAKKARAAKKARAAKKARA [(AKKARA)6]”, the “reduction/drop of blood pressure” value in data set [2] (2 mg per rat (300-350 grams)) was “about 30 mm Hg”. Besides, the “time to nadir of blood pressure” value in data set [2] (2 mg per rat) is 2 min. Moreover, the “effect on platelet aggregation” value in the data set on platelets is “no significant inhibition or enhancement of aggregation”.
Regarding “ARKKAAKA (Fragment) [monomer, control peptide, reference compound]”, in data set [3], the “effect in the anti-Factor Xa assay for Lovenox” value is given as “no effect”. Besides, in data set [1], the “affinity for low molecular weight heparin” value was “negligible affinity”. Besides, the “effect in the anti-Factor Xa assay for UFH” value in data set [4] was “no effect”.
In the case of “ARKKAAKAARKKAAKAARKKAAKAARKKCAKA [(ARKKAAKA)3ARKKCAKA, (ARKKAAKA)3(ARKKCAKA)]”, the “effect on blood pressure” value in data set [2] (2 mg per rat) is given as “did not cause a change in blood pressure”. In addition, in data set [5], the “effect on blood pressure and heart rate / toxicity” value is “no significant effect on blood pressure and heart rate; also recorded: All rats tested showed no response to peptide”. For the same substance, in the data set with platelets, the “effect on platelet aggregation” value is listed as “no significant inhibition or enhancement of aggregation”.
The term Kd denotes the equilibrium constant for the complex coming apart. Consider VLVLARKKAAKAPARKKAAKAVLVL, for which the “Lovenox ® Neutralized” value in data set [6] (blood of Lovenox-treated Patient Number 1) came to 0.027 U/ml; in data set [6] (blood of Lovenox-treated Patient Number 2), 0.012 U/ml; in data set [6] (blood of Lovenox-treated Patient Number 3), 0.021 U/ml; in data set [6] (blood of Lovenox-treated Patient Number 4), 0.022 U/ml; in data set [6] (blood of Lovenox-treated Patient Number 5), 0 U/ml; in data set [6] (blood of Lovenox-treated Patient Number 8), 0.018 U/ml. For the same substance, the “Lovenox ® Neutralized” value in data set [6] (blood of Lovenox-treated Patient Number 9) is 0.007 U/ml; in data set [6] (blood of Lovenox-treated Patient Number 10) it was 0.025 U/ml; in data set [6] (blood of Lovenox-treated Patient Number 11) it was 0.050 U/ml. Moreover, the equilibrium dissociation constant (Kd) in data set [1] (pH 7.0, mean and standard deviation of four assays, read-out: Kd (nM), affinity for low molecular weight heparin) came out at 5220 ± 1550 nM.
